A short description of series [1]: AUC (0 to infinity) in rat at 10 mg/kg, po. It is filed as ADME, organism-based. Set-up: time infinity, dose 10 mg/kg, route oral. Conditions: plasma.
The nature of series [2]: Half life in rat at 10 mg/kg, po. The note with it: in vivo. Format: ADME, organism-based. The arrangement: dose 10 mg/kg, route oral.
Series [3] can be described thus: Oral bioavailability in rat at 10 mg/kg. The note with it: in vivo. It is filed as ADME, organism-based.
Series [4] in a line: Plasma concentration in athymic nu/nu mouse bearing human MDA-MB-231 tumor at 10 to 100 mg/kg, po administered QD for 14 days. It is filed as ADME, organism-based. Set-up: dose 10-100 mg/kg, route oral.
A short description of series [5]: Drug uptake in VEGF-stimulated mouse lung at 30 mg/kg, po after 4 hrs. Conditions: read-out: Drug uptake. Set-up: dose 30 mg/kg, route oral. It is filed as ADME, organism-based.
Series [6] relates to Plasma. Kind of series: Plasma concentration in human MDA-MB-231 cells xenografted mouse at 10 mg/kg. It is filed as ADME, organism-based. Set-up: dose 10 mg/kg. Conditions: in vivo.
Series [7] can be described thus: Plasma concentration in VEGF stimulated-mouse at 10 mg/kg, po after 4 hrs. It is filed as ADME, organism-based. Set-up: dose 10 mg/kg, route oral.
A short description of series [8]: Drug uptake in VEGF-stimulated mouse lung at 3 mg/kg, po after 4 hrs. Format: ADME, organism-based. Set-up: dose 3 mg/kg, route oral. Conditions: read-out: Drug uptake.
Series [9] is described as follows: Drug uptake in VEGF-stimulated mouse lung at 60 mg/kg, po after 4 hrs. Format: ADME, organism-based. The arrangement: dose 60 mg/kg, route oral. Conditions: read-out: Drug uptake.
Series [10] in a line: Plasma concentration in VEGF stimulated-mouse at 3 mg/kg, po after 4 hrs. Format: ADME, organism-based. Set-up: dose 3 mg/kg, route oral.
The nature of series [11]: Plasma concentration in VEGF stimulated-mouse at 30 mg/kg, po after 4 hrs. Format: ADME, organism-based. Set-up: dose 30 mg/kg, route oral.
Series [12] in a line: Plasma concentration in VEGF stimulated-mouse at 60 mg/kg, po after 4 hrs. Format: ADME, organism-based. The arrangement: dose 60 mg/kg, route oral.
Series [13] deals with Plasma. Kind of series: Plasma concentration in human MDA-MB-231 cells xenografted mouse at 100 mg/kg. Conditions: in vivo. The arrangement: dose 100 mg/kg. It is filed as ADME, organism-based. In general terms: A xenograft is tissue or cells of one species grown in another, often human tumour cells in immunodeficient mice.
The subject of series [14] is Plasma. Description: Plasma concentration in human MDA-MB-231 cells xenografted mouse at 60 mg/kg. Format: ADME, organism-based. The arrangement: dose 60 mg/kg. The note with it: in vivo.
The subject of series [15] is Plasma. Description: Plasma concentration in human MDA-MB-231 cells xenografted mouse at 3 mg/kg. Format: ADME, organism-based. Set-up: dose 3 mg/kg. Conditions: in vivo.
Series [16] in a line: Plasma concentration in VEGF stimulated-mouse at 1 mg/kg, po after 4 hrs. It is filed as ADME, organism-based. Set-up: dose 1 mg/kg, route oral.
A short description of series [17]: Plasma concentration in VEGF stimulated-mouse at 100 mg/kg, po after 4 hrs. It is filed as ADME, organism-based. Set-up: dose 100 mg/kg, route oral.
Series [18] is described as follows: Drug uptake in human MDA-MB-231 cells xenografted mouse tumor at 10 mg/kg. Format: ADME, organism-based, Neoplasm. The arrangement: dose 10 mg/kg. The note with it: in vivo, read-out: Drug uptake.
Series [19] is described as follows: Drug uptake in human MDA-MB-231 cells xenografted mouse tumor at 30 mg/kg. Set-up: dose 30 mg/kg. Conditions: in vivo, read-out: Drug uptake. It is filed as ADME, organism-based, Neoplasm.
Series [20] in a line: Drug uptake in human MDA-MB-231 cells xenografted mouse tumor at 60 mg/kg. Conditions: in vivo, read-out: Drug uptake. It is filed as ADME, organism-based, Neoplasm. The arrangement: dose 60 mg/kg.
A short description of series [21]: Drug uptake in human MDA-MB-231 cells xenografted mouse tumor at 100 mg/kg. It is filed as ADME, organism-based, Neoplasm. The arrangement: dose 100 mg/kg. The note with it: in vivo, read-out: Drug uptake.
Series [22] relates to Lung. Description: Drug uptake in VEGF-stimulated mouse lung at 1 mg/kg, po after 4 hrs. It is filed as ADME, organism-based. Set-up: dose 1 mg/kg, route oral. The note with it: in vivo, BLD = below limit of detection.
Series [23] in a line: Permeability across MDCK cells. It is filed as ADME, cell-based, Canis lupus familiaris. Conditions: dog, read-out: permeability.
Series [24] relates to Plasma. Kind of series: Plasma concentration in human MDA-MB-231 cells xenografted mouse at 30 mg/kg. Format: ADME, organism-based. Set-up: dose 30 mg/kg. The note with it: in vivo.
Series [25] relates to Plasma. Description: Plasma concentration in human MDA-MB-231 cells xenografted mouse at 1 mg/kg. It is filed as ADME, organism-based. Set-up: dose 1 mg/kg. The note with it: in vivo, BLD = below limit of detection.
The nature of series [26]: Drug uptake in human MDA-MB-231 cells xenografted mouse tumor at 1 mg/kg. The arrangement: dose 1 mg/kg. The note with it: in vivo, BLD = below limit of detection. It is filed as ADME, organism-based, Neoplasm.
A short description of series [27]: Plasma concentration in athymic nu/nu mouse bearing human HT-29 tumor at 10 to 100 mg/kg, po administered QD for 14 days. It is filed as ADME, organism-based. Set-up: dose 10-100 mg/kg, route oral.
Series [28] is described as follows: Drug uptake in human MDA-MB-231 cells xenografted mouse tumor at 3 mg/kg. It is filed as ADME, organism-based, Neoplasm. Set-up: dose 3 mg/kg. Conditions: in vivo, BLD = below limit of detection.
A short description of series [29]: Drug uptake in VEGF-stimulated mouse lung at 10 mg/kg, po after 4 hrs. Format: ADME, organism-based. The arrangement: dose 10 mg/kg, route oral. Conditions: read-out: Drug uptake.
A short description of series [30]: Drug uptake in VEGF-stimulated mouse lung at 100 mg/kg, po after 4 hrs. The note with it: read-out: Drug uptake. The arrangement: dose 100 mg/kg, route oral. Format: ADME, organism-based.
A short description of series [31]: Oral bioavailability in rat. Format: ADME, organism-based. The note with it: in vivo.
A short description of series [32]: Clearance in rat. It is filed as ADME, organism-based. The note with it: in vivo.

The values that follow come from ChEMBL document CHEMBL2086224, “The design, synthesis, and biological evaluation of potent receptor tyrosine kinase inhibitors” (Bioorg Med Chem Lett, 2012).

SMILES strings stand for the structures.

As usually defined, the AUC(0-inf) is the area under the concentration-time curve extrapolated to infinity. One may read the half-life as the time in which the quantity being followed falls by half. Read a high half-life as slow loss. What is called bioavailability is the share of a dose that reaches the circulation, judged against a reference dose that is usually intravenous. A high value points to good availability. In [1], `CCN1CCC(Nc2ccc3c(c2)C(=C(c2cccc(F)c2)c2ncc(C)[nH]2)C(=O)N3)CC1` (mixture of isomers) came in with an AUC(0-inf) of 1.9 µM·h. In addition, the half-life in series [2] was 4.6 h. The same compound returned a bioavailability in [3] of 20%.
For `CCN1CCC(Nc2ccc3c(c2)C(=C(c2ccc(OC)cc2)c2nc4ccccc4[nH]2)C(=O)N3)CC1` (mixture of isomers), in that order: 0.33 µM·h, 7.5 h and 27%.
Turning to `CCN1CCC(Nc2ccc3c(c2)C(=C(c2ccccc2)c2nc4ccccc4[nH]2)C(=O)N3)CC1` (mixture of isomers), the AUC(0-inf) in series [1] stood at 1.44 µM·h. The compound also gave a half-life in [2] of 5.7 h. The compound also registered a bioavailability in [3] of 37%.
For `CCN1CCC(Nc2ccc3c(c2)C(=C(c2cc(F)cc(F)c2)c2nc(C)c[nH]2)C(=O)N3)CC1` (mixture of isomers), in that order: 5.19 µM·h, 7.2 h and 59%.
On to `CCN1CCC(Nc2ccc3c(c2)C(=C(c2ccc(Cl)cc2)c2ncc[nH]2)C(=O)N3)CC1` (mixture of isomers), for which the concentration at 336 h in [4] and in [27] was 1000 nM in each case. The concentration at 4 h in series [5] was found to be 470 nM; in series [7], 20 nM; in series [8], 70 nM; in series [9], 810 nM; in [10], 10 nM; in series [11] it was 10 nM. Also, the concentration at 4 h turned out to be 10 nM in [12]; 4 nM in [16]; 620 nM in [17]; 280 nM in [29]; 3550 nM in series [30]. In addition, the concentration in series [6] was 40 nM; in series [13] it was 800 nM; in [14] it was 260 nM; in [15], 10 nM; in series [18], 340 nM; in [19] it was 1400 nM. Besides, the concentration was 3600 nM in series [20], 8800 nM in series [21] and 200 nM in series [24]. Further, in series [1], the AUC(0-inf) turned out to be 5.04 µM·h. The half-life in [2] is 10.7 h. In addition, the Drug uptake result in [22], in [26] and in [28] was “BLD” in each case. Also, in [23], the Papp turned out to be 6.8 ×10⁻⁶ cm/s. Also, the Cp result in series [25] is “BLD”. The bioavailability in series [3] was 63%.
On to `CCN1CCC(Nc2ccc3c(c2)C(=C(c2cccc(F)c2)c2nc4ccccc4[nH]2)C(=O)N3)CC1` (mixture of isomers), for which the AUC(0-inf) in series [1] stood at 1.99 µM·h. Also, in series [2], the half-life was 4.4 h. The same compound showed a bioavailability in series [3] of 63%.
The corresponding values for `CCN1CCC(Nc2ccc3c(c2)C(=C(c2nc(C)c[nH]2)c2ccccc2F)C(=O)N3)CC1` (mixture of isomers) are 1.03 µM·h, 2.3 h and 25%.
As a reminder, the clearance is a measure of how efficiently the substance is removed, as volume per time. As to `CCN1CCC(Nc2ccc3c(c2)C(=C(c2ccccc2)c2nc4cc(OC)ccc4[nH]2)C(=O)N3)CC1` (mixture of isomers), the bioavailability in [31] worked out at 19%. For the same compound, in series [32], the clearance was 108 mL/min/kg.
Consider `CCN1CCC(Nc2ccc3c(c2)C(=C(c2ccccc2)c2ncc[nH]2)C(=O)N3)CC1` (mixture of isomers), for which the AUC(0-inf) in series [1] is 1.5 µM·h. Moreover, the half-life in series [2] is 11.6 h. The same compound yielded a bioavailability in series [3] of 16%.
`CCN1CCC(Nc2ccc3c(c2)C(=C(c2cccc(F)c2)c2ncc[nH]2)C(=O)N3)CC1` (mixture of isomers) returned an AUC(0-inf) in [1] of 1.12 µM·h. This compound also gave a half-life in series [2] of 5.4 h. For the same compound, the bioavailability in series [3] turned out to be 15%.
In turn, `CCN1CCC(Nc2ccc3c(c2)C(=C(c2ccc(C)cc2)c2nc4ccccc4[nH]2)C(=O)N3)CC1` (mixture of isomers) registered an AUC(0-inf) in series [1] of 2.36 µM·h. This compound gave a half-life in series [2] of 4.6 h. For the same compound, the bioavailability in [3] is 55%.
As to `CCN1CCC(Nc2ccc3c(c2)C(=C(c2cc(F)cc(F)c2)c2nc4ccccc4[nH]2)C(=O)N3)CC1` (mixture of isomers), the AUC(0-inf) in series [1] was 3.14 µM·h. In [2], this compound showed a half-life of 3.8 h. The compound further gave a bioavailability in series [3] of 72%.
